We go through five compounds from patent US20060223812A1, “Treating neurodegenerative conditions” (MAX-PLANCK-GESELLSCHAFT ZUR FORDERUNGDER WISSENSCHAFTEN, …, priority 2004, published 2006).

One experiment concerns K18/Y310W. The experiment is described as follows: Tryptophan fluorescence inhibition assay, K18/Y310W. It counts as biochemical, human. The note with it: 60 μM compound. From the text: (§1) In order to exclude a possible distortion of the data by the dye the results of the ThS assays can be confirmed by a tryptophan fluorescence assay (Li et al., 2002). It allows the detection of the molecular environment of a tryptophan introduced instead of tyrosine 310 whose emission maximum is sensitive to the burial in a more hydrophobic surrounding upon PHF formation. Therefore the mutants K19/Y310W (FIG. 1I) and K18/Y310W (FIG. 1H) that contain a single tryptophan within the core of the PHF structure were created. In the soluble protein the emission maximum lies at ˜354 nm, whereas it shifts to 340 nm upon PHF formation (FIG. 3A, compare first and second entry). The emission peak can be shifted back by incubation at high concentrations of GuHCl which is due to the disassembly of the PHFs (FIG. 3A, fourth entry).
The fluorescence experiments were performed on a Spex Fluoromax spectrophotometer (Polytec, Waldbronn, Germany) using 3 mm×3 mm micro cuvettes from Hellma (Mühlheim, Germany) with 20 μl sample volumes. A tryptophan emission spectrum scans from 300 to 450 nm at fixed excitation wavelength of 290 nm. The slit widths were 5 nm, the integration time was 0.25 second, and the photomultiplier voltage was 950 V. For fluorescence inhibition assay, 60 μM compounds were incubated with K19/Y310W construct (10 μM) or K18/ΔK280/Y310W and heparin (2.5 μM) in PBS, pH 7.4 three days at 37° C.
In the Trp fluorescence assay the inhibition of PHF assembly becomes apparent if the emission maximum of Trp310 remains higher than that of the control without any compound, because Trp310 remains in a more solvent-accessible hydrophilic environment. The three repeat tau construct K19 (at 10 μM) was prevented from polymerisation by about 90% by the presence of all compounds at a concentration, of 60 μM (FIG. 3A, note that entries 5-9 retain their values around 354 nm, similar to the control #1). […] The internal ranking stays roughly the same as with K18; PHF005 (#9) is the best, PHF016 (#8) the worst inhibitor. […] The apparent degrees of inhibition differ somewhat between the ThS fluorescence and the intrinsic Trp fluorescence assays, but this may be due to the different origins of the signal. In the ThS assay the dye has to bind to the filaments, which requires a minimal length of the fibres. The tryptophan fluorescence assay depends on the local surrounding of the residue and is therefore less dependent on the length of the filaments.
(A-C) fluorescence emission maximum of the single tryptophan W310 inserted by site-directed mutagenesis into tau constructs K19 (FIG. 3A), K18 (FIG. 3B) and K18/ΔK280 (FIG. 3C). Fully solvent-accessible Trp has an emission maximum at ˜355 nm, a blue-shift to lower wavelengths is an indicator of PHF aggregation. […]

The target of the next experiment is T1, PHFs from K18 (Homo sapiens, UniProt P10636).
T1 construct: made in house; host or cells: E. coli
The experiment is described as follows: Thioflavine S assay, depolymerisation of pre-formed PHFs, K18. It counts as biochemical. From the text:
The ThS assay was used to analyse the ability of the five compounds (see Example 4) to depolymerise pre-formed PHFs made from the repeat domain constructs K19 and K18 as well as from isoforms htau23 and htau24, containing 3 or 4 repeats, respectively.
The depolymerisation of K19 filaments (FIG. 4A) followed a similar concentration dependence as the inhibition experiment, with consistently similar or slightly higher DC50 values than the corresponding IC50 concentrations (Table 2). The ratios of IC50/DC50 range from 0.2-1.2. […] Here, too, the concentration dependence for K19 was steeper than for K18 (compare FIGS. 4A, B), similar to that of assembly inhibition (FIGS. 2A, B).
Tau constructs and isoforms K19, K18, hTau23, hTau24 (10 μM) were first aggregated into PHFs for 48 hours in the presence of 2.5 μM heparin (except K18/ΔK280) and the polymers separated from the soluble tau by centrifugation of 1 h at 100,000 g, redissolved and then exposed to the inhibitors overnight at 37° C. at the indicated concentrations (range 0.001-200 μM). The compounds are capable of disassembling PHFs with varying efficiencies (see Table 2).

A further experiment has as its system K18 filaments (Y310W). Briefly: Tryptophan fluorescence depolymerisation assay, K18 filaments. As to conditions: 60 μM compound. It counts as biochemical, human. The protocol:
(§2) For the fluorescence depolymerisation assay, 60 μM inhibitor compound were added to pre-formed PHFs (10 μM) and incubated overnight at 37° C. PHFs were formed by incubation of tau construct K19/Y310W (50 μM) or K18/ΔK280/Y310W with 12.5 μM heparin in volume of 100 μl at 37° C. in PBS, pH 7.4. Incubation time was three days. The formation of aggregates was observed as a shift of the emission maximum from ˜354 nm to ˜340 nm.
All other compounds yielded emission maxima of the protein after treatment around 350-353 nm, close to the value of soluble tau, indicating a depolymerisation efficiency of about 80-90%.
(§3) FIG. 5: Disassembly of preformed PHFs measured by tryptophan fluorescence shift assay and filter assay. Experiments were performed with tau constructs containing the Y310W mutation as in FIG. 3.

A further experiment has as its system K18/ΔK280/Y310W. The experiment is described as follows: Tryptophan fluorescence inhibition assay, K18/ΔK280/Y310W. As to conditions: 60 μM compound. It counts as biochemical, human.
Description: as §1, with “The emission peak can be shifted back by incubation at high concentrations of GuHCl which is due to the disassembly of the PHFs (FIG. 3A, fourth entry).” left out
The fluorescence experiments were performed on a Spex Fluoromax spectrophotometer (Polytec, Waldbronn, Germany) using 3 mm×3 mm micro cuvettes from Hellma (Mühlheim, Germany) with 20 μl sample volumes. […] The slit widths were 5 nm, the integration time was 0.25 second, and the photomultiplier voltage was 950 V. For fluorescence inhibition assay, 60 μM compounds were incubated with K19/Y310W construct (10 μM) or K18/ΔK280/Y310W and heparin (2.5 μM) in PBS, pH 7.4 three days at 37° C. […]
(A-C) fluorescence emission maximum of the single tryptophan W310 inserted by site-directed mutagenesis into tau constructs K19 (FIG. 3A), K18 (FIG. 3B) and K18/ΔK280 (FIG. 3C). […]

The target of another experiment is T2, K19 PHFs (Homo sapiens, UniProt P10636).
T2 construct: construct K19 containing three repeats; made in house; host or cells: E. coli
Briefly: Depolymerisation of K19 PHFs at prolonged incubation times. It counts as biochemical. The note with it: 0.5 μM compound, after 12 hours. Here is the method: Untreated controls were measured in parallel and subtracted as background.

In experiment [1] the test system is PHFs from K18/ΔK280/Y310W. The experiment is described as follows: Tryptophan fluorescence depolymerisation assay, K18/ΔK280. Type of experiment: biochemical, human. As to conditions: 60 μM compound. The protocol: as §2, §3
The mark [2] stands for this setting: ThS fluorescence, overnight 37° C., read-out: Depolymerisation of PHFs DC50, K18.

Read-outs that look alike come from different tables or passages of the source.

T1 sequence (P10636 561-685 limits assumed): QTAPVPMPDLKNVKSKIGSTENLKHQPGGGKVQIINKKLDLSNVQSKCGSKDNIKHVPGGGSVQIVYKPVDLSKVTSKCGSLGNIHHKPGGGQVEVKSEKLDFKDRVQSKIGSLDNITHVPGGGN
T2 sequence (P10636 with tags, fused parts or gaps isoform P10636-2 limits assumed): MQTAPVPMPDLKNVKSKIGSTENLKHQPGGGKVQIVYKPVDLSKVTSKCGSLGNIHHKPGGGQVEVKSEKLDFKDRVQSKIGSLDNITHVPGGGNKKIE

`COc1cccc2c1C(=O)c1c(O)c3c(c(O)c1C2=O)CC(O)(C(=O)CO)CC3OC1CC(N)C(O)C(C)O1` (centres unmarked) [Adriamycin, 10-(4-Amino-5-hydroxy-6-methyl-tetrahydro-pyran-2-yloxy)-6,8,11-trihydroxy-8-(2-hydroxyethanoyl)-1-methoxy-7,8,9,10-tetrahydro-naphthacene-5,12-dione, reference compound]: the “inhibition of PHF formation, K18/Y310W, Trp fluorescence” value (“inhibition of PHF formation, K18/Y310W” for short) in the experiment with K18/Y310W is reported as “about 70%”. At PHFs from K18 (read-out: Depolymerisation of PHFs DC50, K18, ThS fluorescence, overnight 37° C.), the DC50 is 4.3 µM.
For `COc1cccc2c1C(=O)c1c(O)c3c(c(O)c1C2=O)CC(O)(C(C)=O)CC3OC1CC(N)C(O)C(C)O1` (centres unmarked) [Daunorubicin, 8-Acetyl-10-(4-amino-5-hydroxy-6-methyl-tetrahydro-pyran-2-yloxy)-6,8,11-trihydroxy-1-methoxy-7,8,9,10-tetrahydro-naphthacene-5,12-dione, reference compound], the “inhibition of PHF formation, K18/Y310W” value in the experiment on K18/Y310W was “about 70%”. For the same compound, the DC50 at PHFs from K18 (setting [2]) was 4 µM.
With `Cc1cc(O)c2c(c1)C(=O)c1cc(O)cc(O)c1C2=O` [Emodin, 1,3,8-Trihydroxy-6-methyl-anthraquinone], in the experiment on K18/Y310W, the “inhibition of PHF formation, K18/Y310W” value is on record as “about 70%”. Further, on PHFs from K18 (setting [2]), the DC50 is 2 µM.
With `O=C(c1ccccc1)c1ccc(O)c(O)c1O` [PHF005, 1-Phenyl-1-(2,3,4-trihydroxy-phenyl)-methanone], the “depolymerisation efficiency, K18 filaments, Trp fluorescence” value with K18 filaments (Y310W) is 80%. In addition, in the experiment with K18/ΔK280/Y310W, the “ranking as inhibitor, K18/ΔK280, Trp fluorescence” value was “best”. The DC50 at PHFs from K18 (setting [2]) amounted to 20.8 µM. The “depolymerisation of K19 PHFs” value at K19 PHFs was “Nearly no effects”. Also, the “depolymerising PHFs, K18/ΔK280, Trp fluorescence” value in experiment [1] is recorded as “most potent agent”.
Regarding `O=C1c2ccc(O)c(O)c2C(=O)c2c(O)ccc(O)c21` [PHF016, 1,2,5,8-Tetrahydroxy-anthraquinone], in the experiment with K18/Y310W, the “inhibition of PHF formation, K18/Y310W” value is on record as 25%. The “ranking as inhibitor, K18/ΔK280, Trp fluorescence” value in the experiment on K18/ΔK280/Y310W is recorded as “worst”. Further, the DC50 on PHFs from K18 (setting [2]) was found to be 7.3 µM.
